{"source": "patent US20040091477A1", "about": "“Immunosuppresive compositions” (priority 2003, published 2004)", "key": {"CD45RA": {"system": "CD45RA", "assay": "CD45RA expression by PMA/IOM-stimulated PBMC from asthma patients, flow cytometry", "format": "cell-based, human", "procedure": "(§1) Venous blood was collected in polyethylene tubes containing EDTA between 9 and 10 a.m. PBMC were separated by Ficoll-paque (Pharmacia, Uppsala, Sweden) density gradient centrifugation. Cells were washed and suspended in AIM-V medium (Gibco BRL, Gaithersburg, Md.) at density of 2×10^6 cells/ml. PBMC were stimulated with 20 nM phorbol 12-myristate 13-acetate (PMA) and 1 μM ionomycin (IOM) (ICN Pharmaceuticals, Inc. CA, USA). The cells were harvested 24 hours later and supernatants were frozen at −70° C. until use. […] For BN52021, a range between 1×10^−9 and 1×10^−4 M was used.\n(§2) Two-color flow cytometry was conducted using a Coulter Epics Profile II flow cytometer (Coulter Scientific, Hialeah, Fla., USA). Isotypic controls for the monoclonal antibodies (mAb) used to detect antigens of interest were established for each cell preparation. Positive analysis regions for cells expressing specific surface antigens were set against isotypic controls and specific binding of fluorophore-conjugated mAb was analyzed by cytofluorography according to standard methods. Lymphocyte subpopulations were identified by position on forward and side scatter plots and live-gated. Isotype matched antibodies were utilized to control for nonspecific fluorescence. […] Background values for antibodies used in assays were based on fluorescence of non-specific antibodies. […]"}, "CD54": {"system": "CD54", "assay": "CD54 expression by PMA/IOM-stimulated PBMC from asthma patients, flow cytometry", "format": "cell-based, human", "procedure": "as §1, §2"}, "IL-5": {"system": "IL-5", "assay": "IL-5 expression by PMA/IOM-stimulated PBMC from asthma patients, ELISA", "format": "cell-based, human", "procedure": "as §1\n(§3) Cytokine expression (IL-4 and IL5) was evaluated in culture supernatants by enzyme-linked immunoabsorption assay (Amersham North America, Illinois, USA). The detection range was 10-400 pg/ml and 7.8-500 pg/ml respectively. Colorimetric changes proportional to supernatant cytokine concentration were measured using a model 2550 EIA reader (Bio-Rad Laboratories, Hercules Calif. USA). All assays were performed in duplicate.\n(§4) The data shown Table 2 was obtained using cultures of 2×10^6 human PBMC, which were isolated from venous blood and stimulated 24 hours with media, 20 nM PMA+1.0 μM ionomycin (PMA/I), 1.0 μM cyclosporine A+PMA/IOM, or 1 μM ginkgolide BN52021+PMA. Expression of interleukins 4 and 5 were measured in PBMC culture supernatents by antibody capture ELISA. […]"}, "HLA-DR": {"system": "HLA-DR", "assay": "HLA-DR expression by PMA/IOM-stimulated PBMC from asthma patients, flow cytometry", "format": "cell-based, human", "procedure": "as §1, §2"}, "[1]": {"system": "lymphocyte activation markers", "assay": "Dose range of BN52021 on lymphocyte activation markers in PBMC from asthma patients", "format": "cell-based, human", "settings": "1×10^−5 and 1×10^−7 M, 3 of the patients tested", "procedure": "as §1, §2"}, "CD25": {"system": "CD25", "assay": "CD25 expression by PMA/IOM-stimulated PBMC from asthma patients, flow cytometry", "format": "cell-based, human", "procedure": "as §1, §2"}, "IL-4": {"system": "IL-4", "assay": "IL-4 expression by PMA/IOM-stimulated PBMC from asthma patients, ELISA", "format": "cell-based, human", "procedure": "as §1, §3, §4"}, "[2]": {"target": "platelet activating factor receptor (PAFR) (Homo sapiens, UniProt P25105)", "sequence (P25105 whole entry, species assumed)": "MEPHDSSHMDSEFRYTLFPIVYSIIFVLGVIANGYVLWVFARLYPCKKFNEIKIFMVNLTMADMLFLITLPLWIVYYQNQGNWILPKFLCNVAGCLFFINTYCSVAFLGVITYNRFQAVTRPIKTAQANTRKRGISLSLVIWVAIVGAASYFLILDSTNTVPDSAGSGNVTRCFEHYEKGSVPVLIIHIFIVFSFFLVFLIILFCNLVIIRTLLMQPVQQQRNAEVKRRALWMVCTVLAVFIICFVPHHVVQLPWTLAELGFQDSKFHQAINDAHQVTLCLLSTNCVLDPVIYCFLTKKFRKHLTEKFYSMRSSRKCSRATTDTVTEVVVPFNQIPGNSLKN", "settings": "cited from earlier work"}, "[3]": {"system": "cAMP-specific phosphodiesterase", "settings": "cited from earlier work"}, "[4]": {"settings": "1 μM, PMA/IOM-stimulated cultures"}, "[5]": {"settings": "PMA + IOM + 1 μM compound, 24 hours, ±SE"}}, "note": "Read-outs that look alike come from different tables or passages of the source."}
{"smiles": "C[C@@H]1C(=O)O[C@H]2[C@@H](O)[C@@]34[C@H]5C[C@@H](C(C)(C)C)[C@]36[C@@H](OC(=O)[C@@H]6O)O[C@@]4(C(=O)O5)[C@@]12O", "note": "[BN52021, Ginkgolide B]", "values": [{"measurement": "effect on CD45RA expression (in words)", "setting": "CD45RA; [4]", "result": "decreased significantly"}, {"measurement": "% CD45RA", "setting": "CD45RA; [5]", "result": "48.8 ± 9.5", "unit": "%"}, {"measurement": "effect on CD54 expression (in words)", "setting": "CD54; [4]", "result": "unaffected"}, {"measurement": "% CD54", "setting": "CD54; [5]", "result": "27.4 ± 6.9", "unit": "%"}, {"measurement": "effect on IL-5 expression (in words)", "setting": "IL-5; [4]", "result": "no statistically significant effect"}, {"measurement": "IL-5 in culture supernatant", "setting": "IL-5; [5]", "result": "374 ± 105", "unit": "pg/mL"}, {"measurement": "effect on HLA-DR expression (in words)", "setting": "HLA-DR; [4]", "result": "a trend towards the reduction"}, {"measurement": "% HLA-DR", "setting": "HLA-DR; [5]", "result": "21.2 ± 5.3¶ %"}, {"measurement": "change in lymphocyte activation markers (in words)", "setting": "[1]", "result": "No change occurred in lymphocyte activation markers"}, {"measurement": "effect on CD25 expression (in words)", "setting": "CD25; [4]", "result": "unaffected"}, {"measurement": "% CD25", "setting": "CD25; [5]", "result": "7.1 ± 2.0", "unit": "%"}, {"measurement": "effect on IL-4 expression (in words)", "setting": "IL-4; [4]", "result": "no statistically significant effect"}, {"measurement": "IL-4 in culture supernatant", "setting": "IL-4; [5]", "result": "81.7 ± 28.1", "unit": "pg/mL"}, {"measurement": "PAFR antagonist activity (in words)", "setting": "[2]", "result": "PAFR antagonist activity"}, {"measurement": "PAFR antagonist activity (in words)", "setting": "[2]; listed as Ginkgolide B", "result": "PAFR antagonist"}, {"measurement": "cAMP phosphodiesterase inhibitory activity (in words)", "setting": "[3]", "result": "does not possess cAMP phophodiesterase activity"}]}
